{"source": "the CombiSolv-Exp solvation set (Vermeire and Green 2021)", "experiment": "solvent given as SMILES"}
{"smiles": "O=C(O)c1ccc([N+](=O)[O-])cc1", "values": [{"measurement": "solvation free energy, 298 K", "setting": "in C1CCOC1", "value": -13.3, "unit": "kcal/mol"}, {"measurement": "solvation free energy, 298 K", "setting": "in C1COCCO1", "value": -13.1, "unit": "kcal/mol"}, {"measurement": "solvation free energy, 298 K", "setting": "in CC(C)(C)O", "value": -12.4, "unit": "kcal/mol"}, {"measurement": "solvation free energy, 298 K", "setting": "in CC(C)CCO", "value": -11.9, "unit": "kcal/mol"}, {"measurement": "solvation free energy, 298 K", "setting": "in CC(C)CO", "value": -11.9, "unit": "kcal/mol"}, {"measurement": "solvation free energy, 298 K", "setting": "in CC(C)O", "value": -12.2, "unit": "kcal/mol"}, {"measurement": "solvation free energy, 298 K", "setting": "in CC(C)OC(C)C", "value": -11.3, "unit": "kcal/mol"}, {"measurement": "solvation free energy, 298 K", "setting": "in CC(C)OCCO", "value": -12.6, "unit": "kcal/mol"}, {"measurement": "solvation free energy, 298 K", "setting": "in CC(O)COC(C)(C)C", "value": -12.6, "unit": "kcal/mol"}, {"measurement": "solvation free energy, 298 K", "setting": "in CCC(C)O", "value": -12.1, "unit": "kcal/mol"}, {"measurement": "solvation free energy, 298 K", "setting": "in CCCC(C)O", "value": -12, "unit": "kcal/mol"}, {"measurement": "solvation free energy, 298 K", "setting": "in CCCCCCCCCCO", "value": -11.7, "unit": "kcal/mol"}, {"measurement": "solvation free energy, 298 K", "setting": "in CCCCCCCCO", "value": -11.8, "unit": "kcal/mol"}, {"measurement": "solvation free energy, 298 K", "setting": "in CCCCCCCO", "value": -11.9, "unit": "kcal/mol"}, {"measurement": "solvation free energy, 298 K", "setting": "in CCCCCCO", "value": -12, "unit": "kcal/mol"}, {"measurement": "solvation free energy, 298 K", "setting": "in CCCCCO", "value": -12, "unit": "kcal/mol"}, {"measurement": "solvation free energy, 298 K", "setting": "in CCCCCOC(C)=O", "value": -11.7, "unit": "kcal/mol"}, {"measurement": "solvation free energy, 298 K", "setting": "in CCCCO", "value": -12, "unit": "kcal/mol"}, {"measurement": "solvation free energy, 298 K", "setting": "in CCCCOC(C)=O", "value": -11.9, "unit": "kcal/mol"}, {"measurement": "solvation free energy, 298 K", "setting": "in CCCCOCCO", "value": -12.5, "unit": "kcal/mol"}, {"measurement": "solvation free energy, 298 K", "setting": "in CCCO", "value": -12.2, "unit": "kcal/mol"}, {"measurement": "solvation free energy, 298 K", "setting": "in CCCOCCO", "value": -12.6, "unit": "kcal/mol"}, {"measurement": "solvation free energy, 298 K", "setting": "in CCO", "value": -12.3, "unit": "kcal/mol"}, {"measurement": "solvation free energy, 298 K", "setting": "in CCOC(C)=O", "value": -12.2, "unit": "kcal/mol"}, {"measurement": "solvation free energy, 298 K", "setting": "in CCOCC", "value": -12.2, "unit": "kcal/mol"}, {"measurement": "solvation free energy, 298 K", "setting": "in CCOCCO", "value": -12.8, "unit": "kcal/mol"}, {"measurement": "solvation free energy, 298 K", "setting": "in CN(C)C=O", "value": -12.8, "unit": "kcal/mol"}, {"measurement": "solvation free energy, 298 K", "setting": "in CO", "value": -12.5, "unit": "kcal/mol"}, {"measurement": "solvation free energy, 298 K", "setting": "in COC(C)=O", "value": -12.4, "unit": "kcal/mol"}, {"measurement": "solvation free energy, 298 K", "setting": "in COC(C)CCO", "value": -12.6, "unit": "kcal/mol"}, {"measurement": "solvation free energy, 298 K", "setting": "in O", "value": -9.44, "unit": "kcal/mol"}]}
{"smiles": "Cc1ccccc1Cl", "values": [{"measurement": "solvation free energy, 298 K", "setting": "in O", "value": -1.14, "unit": "kcal/mol"}]}
{"smiles": "C1=CCCCC1", "values": [{"measurement": "solvation free energy, 298 K", "setting": "in C1CCC2CCCCC2C1", "value": -4.21, "unit": "kcal/mol"}, {"measurement": "solvation free energy, 298 K", "setting": "in C1CCC(C2CCCCC2)CC1", "value": -4.18, "unit": "kcal/mol"}, {"measurement": "solvation free energy, 298 K", "setting": "in CC#N", "value": -3.43, "unit": "kcal/mol"}, {"measurement": "solvation free energy, 298 K", "setting": "in CC(=O)N(C)C", "value": -3.48, "unit": "kcal/mol"}, {"measurement": "solvation free energy, 298 K", "setting": "in CCC(C)=O", "value": -4, "unit": "kcal/mol"}, {"measurement": "solvation free energy, 298 K", "setting": "in CCCCCCCCO", "value": -3.86, "unit": "kcal/mol"}, {"measurement": "solvation free energy, 298 K", "setting": "in CCCCCl", "value": -4.37, "unit": "kcal/mol"}, {"measurement": "solvation free energy, 298 K", "setting": "in CCCCN(C=O)CCCC", "value": -3.89, "unit": "kcal/mol"}, {"measurement": "solvation free energy, 298 K", "setting": "in CCN1CCCC1=O", "value": -3.79, "unit": "kcal/mol"}, {"measurement": "solvation free energy, 298 K", "setting": "in CCN(CC)C(C)=O", "value": -3.85, "unit": "kcal/mol"}, {"measurement": "solvation free energy, 298 K", "setting": "in CCNC(C)=O", "value": -3.67, "unit": "kcal/mol"}, {"measurement": "solvation free energy, 298 K", "setting": "in CCNC=O", "value": -3.52, "unit": "kcal/mol"}, {"measurement": "solvation free energy, 298 K", "setting": "in CN1CCCC1=O", "value": -3.7, "unit": "kcal/mol"}, {"measurement": "solvation free energy, 298 K", "setting": "in CN1CCCCC1=O", "value": -3.75, "unit": "kcal/mol"}, {"measurement": "solvation free energy, 298 K", "setting": "in CN(C)C=O", "value": -3.66, "unit": "kcal/mol"}, {"measurement": "solvation free energy, 298 K", "setting": "in CNC(C)=O", "value": -3.52, "unit": "kcal/mol"}, {"measurement": "solvation free energy, 298 K", "setting": "in CNC=O", "value": -3.26, "unit": "kcal/mol"}, {"measurement": "solvation free energy, 298 K", "setting": "in COCCO", "value": -3.48, "unit": "kcal/mol"}, {"measurement": "solvation free energy, 298 K", "setting": "in CS(C)=O", "value": -3.13, "unit": "kcal/mol"}, {"measurement": "solvation free energy, 298 K", "setting": "in N#Cc1ccccc1", "value": -3.95, "unit": "kcal/mol"}, {"measurement": "solvation free energy, 298 K", "setting": "in NC=O", "value": -1.87, "unit": "kcal/mol"}, {"measurement": "solvation free energy, 298 K", "setting": "in O", "value": 0.36, "unit": "kcal/mol"}, {"measurement": "solvation free energy, 298 K", "setting": "in O=CN1CCOCC1", "value": -3.21, "unit": "kcal/mol"}, {"measurement": "solvation free energy, 298 K", "setting": "in OCCO", "value": -2, "unit": "kcal/mol"}, {"measurement": "solvation free energy, 298 K", "setting": "in OCCOCCO", "value": -2.63, "unit": "kcal/mol"}, {"measurement": "solvation free energy, 298 K", "setting": "in OCCOCCOCCO", "value": -2.73, "unit": "kcal/mol"}, {"measurement": "solvation free energy, 298 K", "setting": "in c1ccc2c(c1)CCCC2", "value": -4.28, "unit": "kcal/mol"}, {"measurement": "solvation free energy, 298 K", "setting": "in c1ccc(C2CCCCC2)cc1", "value": -4.19, "unit": "kcal/mol"}, {"measurement": "solvation free energy, 298 K", "setting": "in c1ccccc1", "value": -4.47, "unit": "kcal/mol"}]}
{"smiles": "CCCCCCC(C)=O", "values": [{"measurement": "solvation free energy, 298 K", "setting": "in C1COCCO1", "value": -6.83, "unit": "kcal/mol"}, {"measurement": "solvation free energy, 298 K", "setting": "in CCCCCCC", "value": -5.68, "unit": "kcal/mol"}, {"measurement": "solvation free energy, 298 K", "setting": "in CN(C)C=O", "value": -6.23, "unit": "kcal/mol"}, {"measurement": "solvation free energy, 298 K", "setting": "in ClC(Cl)(Cl)Cl", "value": -6.7, "unit": "kcal/mol"}, {"measurement": "solvation free energy, 298 K", "setting": "in NC=O", "value": -5.06, "unit": "kcal/mol"}, {"measurement": "solvation free energy, 298 K", "setting": "in O", "value": -2.92, "unit": "kcal/mol"}]}
{"smiles": "C=C(C)C1CCC2(C)CCC=C(C)C2C1", "note": "(centres undefined)", "values": [{"measurement": "solvation free energy, 298 K", "setting": "in O", "value": -0.16, "unit": "kcal/mol"}]}
{"smiles": "O=C(O)c1ccc(CCl)cc1", "values": [{"measurement": "solvation free energy, 298 K", "setting": "in C=CCCCCCCCCCCCCCC", "value": -8.7, "unit": "kcal/mol"}, {"measurement": "solvation free energy, 298 K", "setting": "in O", "value": -9.22, "unit": "kcal/mol"}]}
{"smiles": "CCC(CC)(CC)CC", "values": [{"measurement": "solvation free energy, 298 K", "setting": "in CCCCCC", "value": -5.88, "unit": "kcal/mol"}, {"measurement": "solvation free energy, 298 K", "setting": "in CO", "value": -4.3, "unit": "kcal/mol"}]}
{"smiles": "CN(C)Cc1ccccc1", "values": [{"measurement": "solvation free energy, 298 K", "setting": "in O", "value": -5.05, "unit": "kcal/mol"}]}
{"smiles": "Nc1ccc(S(=O)(=O)Nc2ccnn2-c2ccccc2)cc1", "values": [{"measurement": "solvation free energy, 298 K", "setting": "in O", "value": -21.2, "unit": "kcal/mol"}]}
{"smiles": "c1ccoc1", "values": [{"measurement": "solvation free energy, 298 K", "setting": "in CC(=O)N(C)C", "value": -3.72, "unit": "kcal/mol"}, {"measurement": "solvation free energy, 298 K", "setting": "in CCCCN(C=O)CCCC", "value": -3.27, "unit": "kcal/mol"}, {"measurement": "solvation free energy, 298 K", "setting": "in CNC(C)=O", "value": -3.23, "unit": "kcal/mol"}, {"measurement": "solvation free energy, 298 K", "setting": "in O", "value": -0.9, "unit": "kcal/mol"}]}
{"smiles": "CCc1ccccn1", "values": [{"measurement": "solvation free energy, 298 K", "setting": "in O", "value": -4.33, "unit": "kcal/mol"}]}
